The source of these data is patent publication US20220380368A1, “SPIROCYCLIC ANDROGEN RECEPTOR PROTEIN DEGRADERS” (THE REGENTS OF THE UNIVERSITY OF MICHIGAN, priority 2019, published 2022).

The assay has as its target T1, AR protein (Homo sapiens, UniProt P10275).
T1 construct: endogenous in cells; host or cells: VCaP
T1 sequence (P10275 1-920): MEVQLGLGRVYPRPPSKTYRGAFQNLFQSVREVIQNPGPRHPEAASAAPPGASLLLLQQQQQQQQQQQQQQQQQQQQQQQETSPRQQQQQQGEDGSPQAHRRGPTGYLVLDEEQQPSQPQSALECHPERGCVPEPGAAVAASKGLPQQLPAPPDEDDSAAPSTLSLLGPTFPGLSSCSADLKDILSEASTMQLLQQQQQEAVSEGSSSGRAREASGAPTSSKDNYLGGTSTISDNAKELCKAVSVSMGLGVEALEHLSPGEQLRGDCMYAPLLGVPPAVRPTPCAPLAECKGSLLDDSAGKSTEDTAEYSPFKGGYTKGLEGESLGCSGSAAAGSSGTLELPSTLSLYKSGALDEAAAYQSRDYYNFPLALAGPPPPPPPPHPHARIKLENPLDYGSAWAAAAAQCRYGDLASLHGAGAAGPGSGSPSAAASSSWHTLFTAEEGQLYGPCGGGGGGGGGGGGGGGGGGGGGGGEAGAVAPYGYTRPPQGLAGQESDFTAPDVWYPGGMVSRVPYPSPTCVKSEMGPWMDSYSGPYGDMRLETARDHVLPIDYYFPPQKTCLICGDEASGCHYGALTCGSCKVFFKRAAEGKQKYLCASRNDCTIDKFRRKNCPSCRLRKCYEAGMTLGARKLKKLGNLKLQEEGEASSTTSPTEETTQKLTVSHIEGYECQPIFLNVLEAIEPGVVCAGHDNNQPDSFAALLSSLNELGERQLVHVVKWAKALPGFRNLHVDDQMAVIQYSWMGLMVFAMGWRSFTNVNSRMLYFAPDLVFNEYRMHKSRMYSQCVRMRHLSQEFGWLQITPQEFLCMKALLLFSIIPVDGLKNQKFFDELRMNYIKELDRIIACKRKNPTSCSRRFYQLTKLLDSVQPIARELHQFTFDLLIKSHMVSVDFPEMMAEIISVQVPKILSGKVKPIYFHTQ
The assay can be described thus: Western blotting analysis of AR protein levels in VCaP cells, band quantification, DC50/DC90. In kind it is cell-based. As to the method:
The appropriate cell line, e.g., prostate cancer LNCaP, Vcap, or 22RV1 cell line, was treated with Compounds of the Disclosure as indicated. The treated cells were lysed with RIPA buffer. […] GAPDH was used as a loading control.
Bands were quantified with ImageJ software. The relative numbers of each band obtained from normalization with its corresponding GAPDH level were compared with Prism 8 software. The DC50 values were produced from Prism 8, and the DC90 values were calculated with an equation=Bottom+(Top−Bottom)/(1+10^((Log EC50−X)*HillSlope) based on DC50 and Hillslope values.
Background: A western blot detects proteins with antibodies after separation by electrophoresis.

Where [1] appears, read: VCaP cells, Table 6; read-out: VCaP DC50.

Like-named read-outs stand apart in the source and are kept apart here. Some results are limits rather than exact numbers.

As for `C[C@H]1CC2(CCN(c3ccc(C(=O)N4CCN(C5CN(c6cc7c(cc6F)C(=O)N(C6CCC(=O)NC6=O)C7=O)C5)CC4)nn3)CC2)CN1c1ccc(C#N)c(Cl)c1` (stereo partly drawn) [Cpd. No. 501, 2-chloro-4-((3S)-8-(6-(4-(1-(2-(2,6-dioxopiperidin-3-yl)-6-fluoro-1,3-dioxoisoindolin-5-yl)azetidin-3-yl)piperazine-1-carbonyl)pyridazin-3-yl)-3-methyl-2,8-diazaspiro[4.5]decan-2-yl)benzonitrile], under setting [1], the DC50 is below 1 nM.

Regarding `C[C@H]1CC2(CCN(c3ccc(C(=O)N4CCN(CC5CN(c6cc7c(cc6F)C(=O)N(C6CCC(=O)NC6=O)C7=O)C5)CC4)nn3)CC2)CN1c1ccc(C#N)c(Cl)c1` (stereo partly drawn) [Cpd. No. 503, 2-chloro-4-((3S)-8-(6-(4-((1-(2-(2,6-dioxopiperidin-3-yl)-6-fluoro-1,3-dioxoisoindolin-5-yl)azetidin-3-yl)methyl)piperazine-1-carbonyl)pyridazin-3-yl)-3-methyl-2,8-diazaspiro[4.5]decan-2-yl)benzonitrile], the DC50 under setting [1] was in the range of 1 to 10 nM.

On to `C[C@H]1CC2(CCN(c3ccc(C(=O)N4CCN(C5CN(c6cc7c(cc6F)C(=O)N(C6CCC(=O)NC6=O)C7=O)C5)CC4)cn3)CC2)CN1c1ccc(C#N)c(Cl)c1` (stereo partly drawn) [Cpd. No. 504, 2-chloro-4-((3S)-8-(5-(4-(1-(2-(2,6-dioxopiperidin-3-yl)-6-fluoro-1,3-dioxoisoindolin-5-yl)azetidin-3-yl)piperazine-1-carbonyl)pyridin-2-yl)-3-methyl-2,8-diazaspiro[4.5]decan-2-yl)benzonitrile], for which the DC50 under setting [1] is below 1 nM. As for `C[C@H]1CC2(CCN(c3ccc(C(=O)N4CCN(C5CN(c6cc7c(cc6F)C(=O)N(C6CCC(=O)NC6=O)C7=O)C5)CC4)cn3)CC2)CN1c1ccc(C#N)c(Cl)c1` (stereo partly drawn) [Cpd. No. 505, 2-chloro-4-((3S)-8-(5-(4-(1-(2-(2,6-dioxopiperidin-3-yl)-6-fluoro-1,3-dioxoisoindolin-5-yl)azetidin-3-yl)piperazine-1-carbonyl)pyridin-2-yl)-3-methyl-2,8-diazaspiro[4.5]decan-2-yl)benzonitrile], under “read-out: VCaP DC50; VCaP cells, Table 6”, the DC50 was below 1 nM. Regarding `C[C@H]1CC2(CCN(c3ccc(C(=O)N4CCN(C5CN(c6cc7c(cc6F)C(=O)N(C6CCC(=O)NC6=O)C7=O)C5)CC4)cn3)CC2)CN1c1ccc(C#N)c(Cl)c1` (stereo partly drawn) [Cpd. No. 506, 2-chloro-4-((3S)-8-(5-(4-(1-(2-(2,6-dioxopiperidin-3-yl)-6-fluoro-1,3-dioxoisoindolin-5-yl)azetidin-3-yl)piperazine-1-carbonyl)pyridin-2-yl)-3-methyl-2,8-diazaspiro[4.5]decan-2-yl)benzonitrile], the DC50 under setting [1] is below 1 nM. For `C[C@H]1CC2(CCN(c3ccc(C(=O)N4CCN(C5CN(c6cc7c(cc6F)C(=O)N(C6CCC(=O)NC6=O)C7=O)C5)CC4)cn3)CC2)CN1c1ccc(C#N)c(Cl)c1` (stereo partly drawn) [Cpd. No. 507, 2-chloro-4-((3S)-8-(5-(4-(1-(2-(2,6-dioxopiperidin-3-yl)-6-fluoro-1,3-dioxoisoindolin-5-yl)azetidin-3-yl)piperazine-1-carbonyl)pyridin-2-yl)-3-methyl-2,8-diazaspiro[4.5]decan-2-yl)benzonitrile], the DC50 under setting [1] lay within 10 to 100 nM. As for `C[C@H]1CC2(CCN(c3ccc(C(=O)N4CCN(C5CCN(c6ccc7c(c6)C(=O)N(C6CCC(=O)NC6=O)C7=O)CC5)CC4)cn3)CC2)CN1c1ccc(C#N)c(Cl)c1` (stereo partly drawn) [Cpd. No. 508, 2-chloro-4-((3S)-8-(5-(4-(1-(2-(2,6-dioxopiperidin-3-yl)-1,3-dioxoisoindolin-5-yl)piperidin-4-yl)piperazine-1-carbonyl)pyridin-2-yl)-3-methyl-2,8-diazaspiro[4.5]decan-2-yl)benzonitrile], under setting [1], the DC50 was below 1 nM. On to `C[C@H]1CC2(CCN(c3ccc(C(=O)N4CCN(C5CCN(c6ccc7c(c6)C(=O)N(C6CCC(=O)NC6=O)C7=O)CC5)CC4)cn3)CC2)CN1c1ccc(C#N)c(Cl)c1` (stereo partly drawn) [Cpd. No. 509, 2-chloro-4-((3S)-8-(5-(4-(1-(2-(2,6-dioxopiperidin-3-yl)-1,3-dioxoisoindolin-5-yl)piperidin-4-yl)piperazine-1-carbonyl)pyridin-2-yl)-3-methyl-2,8-diazaspiro[4.5]decan-2-yl)benzonitrile], for which, under setting [1], the DC50 is below 1 nM.

On to `C[C@H]1CC2(CCN(c3ncc(C(=O)N4CCN(C5CN(c6ccc7c(c6)C(=O)N(C6CCC(=O)NC6=O)C7=O)C5)CC4)cn3)CC2)CN1c1ccc(C#N)c(Cl)c1` (stereo partly drawn) [Cpd. No. 512, 2-chloro-4-((3S)-8-(5-(4-(1-(2-(2,6-dioxopiperidin-3-yl)-1,3-dioxoisoindolin-5-yl)azetidin-3-yl)piperazine-1-carbonyl)pyrimidin-2-yl)-3-methyl-2,8-diazaspiro[4.5]decan-2-yl)benzonitrile], for which, under setting [1], the DC50 is below 1 nM.

Turning to `C[C@H]1CC2(CCN(c3ncc(C(=O)N4CCN(C5CCN(c6ccc7c(c6)C(=O)N(C6CCC(=O)NC6=O)C7=O)CC5)CC4)cn3)CC2)CN1c1ccc(C#N)c(Cl)c1` (stereo partly drawn) [Cpd. No. 513, 2-chloro-4-((3S)-8-(5-(4-(1-(2-(2,6-dioxopiperidin-3-yl)-1,3-dioxoisoindolin-5-yl)piperidin-4-yl)piperazine-1-carbonyl)pyrimidin-2-yl)-3-methyl-2,8-diazaspiro[4.5]decan-2-yl)benzonitrile], the DC50 under setting [1] was below 1 nM. Same read-out and setting: under `C[C@H]1CC2(CCN(c3ncc(C(=O)N4CCC(N5CCN(c6ccc7c(c6)C(=O)N(C6CCC(=O)NC6=O)C7=O)CC5)CC4)cn3)CC2)CN1c1ccc(C#N)c(Cl)c1` (stereo partly drawn) [Cpd. No. 514, 2-chloro-4-((3S)-8-(5-(4-(4-(2-(2,6-dioxopiperidin-3-yl)-1,3-dioxoisoindolin-5-yl)piperazin-1-yl)piperidine-1-carbonyl)pyrimidin-2-yl)-3-methyl-2,8-diazaspiro[4.5]decan-2-yl)benzonitrile] stands below 1 nM; under `C[C@H]1CC2(CCN(c3ccc(C(=O)N4CC[C@@H](N5CCN(c6cc7c(cc6F)C(=O)N(C6CCC(=O)NC6=O)C7=O)CC5)C4)cc3)CC2)CN1c1ccc(C#N)c(Cl)c1` (stereo partly drawn) [Cpd. No. 515, 2-chloro-4-((3S)-8-(4-((3R)-3-(4-(2-(2,6-dioxopiperidin-3-yl)-6-fluoro-1,3-dioxoisoindolin-5-yl)piperazin-1-yl)pyrrolidine-1-carbonyl)phenyl)-3-methyl-2,8-diazaspiro[4.5]decan-2-yl)benzonitrile], 10 to 100 nM.

Regarding `C[C@H]1CC2(CCN(c3ccc(C(=O)N4CC[C@H](N5CCN(c6ccc7c(c6)C(=O)N(C6CCC(=O)NC6=O)C7=O)CC5)C4)cc3)CC2)CN1c1ccc(C#N)c(Cl)c1` (stereo partly drawn) [Cpd. No. 516, 2-chloro-4-((3S)-8-(4-((3S)-3-(4-(2-(2,6-dioxopiperidin-3-yl)-1,3-dioxoisoindolin-5-yl)piperazin-1-yl)pyrrolidine-1-carbonyl)phenyl)-3-methyl-2,8-diazaspiro[4.5]decan-2-yl)benzonitrile], the DC50 under setting [1] fell in the range of 1 to 10 nM.

As to `C[C@H]1CC2(CCN(c3ccc(C(=O)N4CC[C@@H](N5CCN(c6cc7c(cc6F)C(=O)N(C6CCC(=O)NC6=O)C7=O)CC5)C4)cc3)CC2)CN1c1ccc(C#N)c(Cl)c1` (stereo partly drawn) [Cpd. No. 517, 2-chloro-4-((3S)-8-(4-((3R)-3-(4-(2-(2,6-dioxopiperidin-3-yl)-6-fluoro-1,3-dioxoisoindolin-5-yl)piperazin-1-yl)pyrrolidine-1-carbonyl)phenyl)-3-methyl-2,8-diazaspiro[4.5]decan-2-yl)benzonitrile], the DC50 under setting [1] fell in the range of 1 to 10 nM.
